We go through 42 compounds from the RepoRT retention time repository.

Structures can show the parent of a compound that is named as a salt.

This series can be described thus: HILIC, Merck SeQuant ZIC-HILIC, 25 °C, 0.25 mL/min; A: water + 16 mM ammonium formate; B: acetonitrile + 0.1% formic acid, pH 3; gradient (min/%B) 0/97 2/97 10/70 15/10 17/10 18/97 25/97. The following applies: stereoisomer not certain.
Take `Cc1cn(C2CC(O)C(CO)O2)c(=O)[nH]c1=O` (configuration not stated) [THYMIDINE]: the LC retention time was 2.17 min.
The result for `Cc1c[nH]c(=O)[nH]c1=O` [THYMINE] reads 2.14 min; that for `NC(=O)C1CCCN1C(=O)C(Cc1cnc[nH]1)NC(=O)C1CCC(=O)N1` (configuration not stated) [THYROTROPIN RELEASING HORMONE], 13.3 min; that for `OC1CCCCC1O` (stereo not drawn) [TRANS-CYCLOHEXANEDIOL], 1.85 min.
The result for `OCC1OC(OC2OC(CO)C(O)C(O)C2O)C(O)C(O)C1O` (configuration not stated) [TREHALOSE] reads 14.1 min; that for `CCCCCCCCCCCCCCCCCCCCCCC(=O)[O-]` [TRICOSANOATE], 1.53 min.
The result for `C[n+]1cccc(C(=O)[O-])c1` [TRIGONELLINE] reads 13 min; that for `NCCc1c[nH]c2ccccc12` [TRYPTAMINE], 10.5 min; that for `NC(Cc1c[nH]c2ccccc12)C(=O)O` (configuration not stated) [TRYPTOPHAN], 11.4 min.
Turning to `NCCc1ccc(O)cc1` [TYRAMINE], the LC retention time is 11.3 min.
Under `O=C/C=C/c1ccccc1` [Trans-Cinnamaldehyde] stands 1.57 min.
Under `O=C(O)CC(CC(=O)O)C(=O)O` [Tricarballylic acid] stands 9.58 min; under `O=c1cc[nH]c(=O)[nH]1` [URACIL], 2.24 min; under `O=c1[nH]c(=O)c2[nH]c(=O)[nH]c2[nH]1` [URATE], 11.2 min.
Under `O=c1ccn(C2OC(COP(=O)(O)OP(=O)(O)O)C(O)C2O)c(=O)[nH]1` (configuration not stated) [URIDINE 5'-DIPHOSPHATE] stands 15 min.
As to `O=C(O)C1OC(OP(=O)(O)OP(=O)(O)OCC2OC(n3ccc(=O)[nH]c3=O)C(O)C2O)C(O)C(O)C1O` (configuration not stated) [URIDINE DIPHOSPHATE GLUCURONIC ACID], the LC retention time was 15.3 min.
The result for `O=c1ccn(C2OC(COP(=O)(O)O)C(O)C2O)c(=O)[nH]1` (configuration not stated) [URIDINE MONOPHOSPHATE] reads 13.9 min; that for `O=c1ccn(C2OC(CO)C(O)C2O)c(=O)[nH]1` (configuration not stated) [URIDINE], 9 min.
As for `O=C(O)C=Cc1cnc[nH]1` [UROCANATE], the LC retention time stood at 8.66 min.
Under `C=C1CCC(O)CC1=CC=C1CCCC2(C)C1CCC2C(C)C=CC(C)C(C)C` (configuration not stated) [VITAMIN D2] stands 1.55 min.
Under `COc1cc(C(=O)O)ccc1O` [Vanillic acid] stands 2.08 min; under `O=c1[nH]c(=O)c2[nH]cnc2[nH]1` [XANTHINE], 8.96 min; under `O=c1[nH]c(=O)c2ncn(C3OC(COP(=O)(O)O)C(O)C3O)c2[nH]1` (configuration not stated) [XANTHOSINE-MONOPHOSPHATE], 14.4 min.
Take `O=c1[nH]c(=O)c2ncn(C3OC(CO)C(O)C3O)c2[nH]1` (configuration not stated) [XANTHOSINE]: the LC retention time was 10.4 min.
The result for `O=C(O)c1cc(=O)c2cccc(O)c2[nH]1` [XANTHURENATE] reads 10.4 min.
In the case of `COC1=C(OC)C(=O)C(CC=C(C)C)=C(C)C1=O` [coenzyme Q1], the LC retention time was found to be 1.53 min.
The result for `COC1=C(OC)C(=O)C(CC=C(C)CCC=C(C)C)=C(C)C1=O` [coenzyme Q2] reads 1.52 min; that for `Nc1nc2c(ncn2C2CC(O)C(COP(=O)(O)O)O2)c(=O)[nH]1` (configuration not stated) [dGMP sodium salt hydrate], 14.4 min; that for `Cc1cc(O)cc2c1OC(C)(CCC(=O)O)CC2` (configuration not stated) [delta CEHC], 1.87 min.
For the compound `CC(CCC(=O)O)C1CCC2C3CCC4CC(O)CCC4(C)C3CC(O)C12C` (configuration not stated) [deoxycholic acid], the LC retention time was determined as 1.98 min.
Regarding `O=C(O)C=CC(=O)O` [fumaric acid], the LC retention time is 7.45 min.
The result for `O=C(O)CCc1ccccc1` [hydrocinnamic acid] reads 1.69 min; that for `COC(=O)CCCCC(=O)O` [mono-Methyl adipate], 1.71 min; that for `CC(=O)OC(CC(=O)[O-])C[N+](C)(C)C` (stereo not drawn) [o-acetyl-l-carnitine hydrochloride], 13 min.
For the compound `O=C(O)CCCCCC(=O)O` [pimelic acid], the LC retention time worked out at 2.14 min.
The result for `CC(=O)C1CCC2C3CC=C4CC(OS(=O)(=O)O)CCC4(C)C3CCC12C` (configuration not stated) [pregnenolone sulfate] reads 2.05 min; that for `CC(=O)C(=O)O` [pyruvic acid], 5.68 min.
Under `O=c1c(O)c(-c2ccc(O)c(O)c2)oc2cc(O)cc(O)c12` [quercetine dihydrate] stands 2.16 min; under `CC1OC(OCC2OC(Oc3c(-c4ccc(O)c(O)c4)oc4cc(O)cc(O)c4c3=O)C(O)C(O)C2O)C(O)C(O)C1O` (configuration not stated) [rutin hydrate], 10.6 min; under `O=C(O)CCC(=O)O` [succinic acid], 2.19 min.
On to `O=C(O)/C=C/c1c[nH]c2ccccc12` [trans-3-indoleacrylic acid], for which the LC retention time is 2.04 min.
With `C[N+](C)(C)[O-]` [trimethylamine N-oxide], the LC retention time was found to be 11.9 min.
